Test results as given in US11292796B2 (SIGNAL PHARMACEUTICALS, LLC, priority 2008, dated 2022).

Target: T1, mTOR (Homo sapiens, UniProt P42345)
T1 construct: purchased Invitrogen PR8683A
Assay: mTOR HTR-FRET assay
Type: biochemical
Details: read-out: Act. Level (IC50 in mTor HTR-FRET assay)
Procedure, shortened: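 Test compounds, taken from 10 mM DMSO stocks and diluted, were mixed with mTOR enzyme (0.200 μg/mL) in Tris buffer pH 7.4 with 100 mM NaCl, 0.1% Tween-20 and 1 mM DTT. ATP/substrate addition initiated the reaction, alongside compound-free controls.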

T1 sequence (P42345 1360-2549 limits assumed): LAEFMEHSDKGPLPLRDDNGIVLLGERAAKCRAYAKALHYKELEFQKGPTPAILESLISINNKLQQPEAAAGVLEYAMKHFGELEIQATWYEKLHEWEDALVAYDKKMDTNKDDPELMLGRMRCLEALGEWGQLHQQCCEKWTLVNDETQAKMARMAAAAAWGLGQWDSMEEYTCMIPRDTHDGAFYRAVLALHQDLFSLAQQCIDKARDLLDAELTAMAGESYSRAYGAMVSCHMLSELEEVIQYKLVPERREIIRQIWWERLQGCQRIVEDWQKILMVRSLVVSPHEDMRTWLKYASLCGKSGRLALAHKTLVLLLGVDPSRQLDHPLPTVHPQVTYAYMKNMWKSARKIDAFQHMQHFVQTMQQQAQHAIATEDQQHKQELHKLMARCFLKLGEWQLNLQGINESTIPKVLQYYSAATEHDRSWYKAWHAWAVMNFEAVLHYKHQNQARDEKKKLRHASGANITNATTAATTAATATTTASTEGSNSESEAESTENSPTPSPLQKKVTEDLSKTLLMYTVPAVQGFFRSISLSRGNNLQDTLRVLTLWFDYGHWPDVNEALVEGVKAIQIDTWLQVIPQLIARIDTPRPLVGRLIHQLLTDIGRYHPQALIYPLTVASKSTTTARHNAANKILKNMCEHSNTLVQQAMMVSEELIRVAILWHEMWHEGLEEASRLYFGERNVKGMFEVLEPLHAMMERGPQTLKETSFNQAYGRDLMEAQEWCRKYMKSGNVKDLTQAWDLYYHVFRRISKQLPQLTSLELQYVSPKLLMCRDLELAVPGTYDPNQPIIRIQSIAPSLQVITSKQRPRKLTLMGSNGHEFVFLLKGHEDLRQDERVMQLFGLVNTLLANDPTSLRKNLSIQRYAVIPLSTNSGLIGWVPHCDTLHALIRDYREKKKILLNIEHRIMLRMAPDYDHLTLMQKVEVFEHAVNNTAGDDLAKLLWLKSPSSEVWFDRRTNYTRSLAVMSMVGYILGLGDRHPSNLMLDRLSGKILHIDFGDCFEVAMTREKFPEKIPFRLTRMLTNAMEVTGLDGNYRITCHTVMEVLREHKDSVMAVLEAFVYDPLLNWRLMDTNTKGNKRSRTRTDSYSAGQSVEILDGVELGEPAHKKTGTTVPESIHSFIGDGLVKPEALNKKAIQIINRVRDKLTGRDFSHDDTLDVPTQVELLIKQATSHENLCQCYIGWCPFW

SMILES	IC50
O=C1CNc2ncc(-c3ccc(-c4nc[nH]n4)nc3)nc2N1[C@H]1CC[C@@H](O)CC1 [Example 160, 7-(6-(1H-1,2,4-triazol-3-yl)pyridin-3-yl)-1-(cis-4-hydroxycyclohexyl)-3,4-dihydropyrazino[2,3-b]pyrazin-2(1H)-one]	0.005 to 250 nM
Cc1cc(-c2nc[nH]n2)c(F)cc1-c1cnc2c(n1)N([C@H]1CC[C@@H](O)CC1)C(=O)CN2 [Example 161, 7-(5-fluoro-2-methyl-4-(1H-1,2,4-triazol-3-yl)phenyl)-1-(cis-4-hydroxycyclohexyl)-3,4-dihydropyrazino[2,3-b]pyrazin-2(1H)-one]	0.005 to 250 nM
O=C1CNc2ncc(-c3ccc(-c4nc[nH]n4)nc3)nc2N1C1CCOCC1 [Example 162, 7-(6-(1H-1,2,4-triazol-3-yl)pyridin-3-yl)-1-(tetrahydro-2H-pyran-4-yl)-3,4-dihydropyrazino[2,3-b]pyrazin-2(1H)-one]	0.005 to 250 nM
COCCN1C(=O)CNc2ncc(-c3ccc(-c4nc[nH]n4)nc3)nc21 [Example 163, 7-(6-(1H-1,2,4-triazol-3-yl)pyridin-3-yl)-1-(2-methoxyethyl)-3,4-dihydropyrazino[2,3-b]pyrazin-2(1H)-one]	0.005 to 250 nM
CCN1C(=O)CNc2ncc(-c3ccc(-c4nc[nH]n4)nc3)nc21 [Example 164, 7-(6-(1H-1,2,4-triazol-3-yl)pyridin-3-yl)-1-ethyl-3,4-dihydropyrazino[2,3-b]pyrazin-2(1H)-one]	0.005 to 250 nM
Cc1cc(-c2nc[nH]n2)c(F)cc1-c1cnc2c(n1)N(C[C@H]1CC[C@@H](O)CC1)C(=O)CN2 [Example 165, 7-(5-fluoro-2-methyl-4-(1H-1,2,4-triazol-3-yl)phenyl)-1-((cis-4-hydroxycyclohexyl)methyl)-3,4-dihydropyrazino[2,3-b]pyrazin-2(1H)-one]	0.005 to 250 nM
Cc1cc(-c2nc[nH]n2)c(F)cc1-c1cnc2c(n1)N(C1CCOCC1)C(=O)CN2 [Example 166, 7-(5-fluoro-2-methyl-4-(1H-1,2,4-triazol-3-yl)phenyl)-1-(tetrahydro-2H-pyran-4-yl)-3,4-dihydropyrazino[2,3-b]pyrazin-2(1H)-one]	0.005 to 250 nM
O=C1CNc2ncc(-c3cccc4[nH]ccc34)nc2N1CCC1CCOCC1 [Example 167, 7-(1H-indol-4-yl)-1-(2-(tetrahydro-2H-pyran-4-yl)ethyl)-3,4-dihydropyrazino[2,3-b]pyrazin-2(1H)-one]	250 to 500 nM
Cc1cc(-c2nc[nH]n2)c(F)cc1-c1cnc2c(n1)N(C[C@H]1CC[C@H](O)CC1)C(=O)CN2 [Example 168, 7-(5-fluoro-2-methyl-4-(1H-1,2,4-triazol-3-yl)phenyl)-1-((trans-4-hydroxycyclohexyl)methyl)-3,4-dihydropyrazino[2,3-b]pyrazin-2(1H)-one]	0.005 to 250 nM
O=C1CNc2ncc(-c3ccc(-c4nc[nH]n4)nc3)nc2N1C[C@H]1CC[C@@H](O)CC1 [Example 169, 7-(6-(1H-1,2,4-triazol-3-yl)pyridin-3-yl)-1-((cis-4-hydroxycyclohexyl)methyl)-3,4-dihydropyrazino[2,3-b]pyrazin-2(1H)-one]	0.005 to 250 nM
O=C1CNc2ncc(-c3ccc(-c4nc[nH]n4)nc3)nc2N1[C@H]1CC[C@H](O)CC1 [Example 170, 7-(6-(1H-1,2,4-triazol-3-yl)pyridin-3-yl)-1-(trans-4-hydroxycyclohexyl)-3,4-dihydropyrazino[2,3-b]pyrazin-2(1H)-one]	0.005 to 250 nM
CO[C@H]1CC[C@H](N2C(=O)CNc3ncc(-c4ccc(-c5nc[nH]n5)nc4)nc32)CC1 [Example 171, 7-(6-(1H-1,2,4-triazol-3-yl)pyridin-3-yl)-1-(trans-4-methoxycyclohexyl)-3,4-dihydropyrazino[2,3-b]pyrazin-2(1H)-one]	0.005 to 250 nM
CC(C)N1C(=O)CNc2ncc(-c3ccc(-c4nc[nH]n4)nc3)nc21 [Example 172, 7-(6-(1H-1,2,4-triazol-3-yl)pyridin-3-yl)-1-isopropyl-3,4-dihydropyrazino[2,3-b]pyrazin-2(1H)-one]	0.005 to 250 nM
CO[C@H]1CC[C@H](N2C(=O)CNc3ncc(-c4cc(F)c(-c5nc[nH]n5)cc4C)nc32)CC1 [Example 173, 7-(5-fluoro-2-methyl-4-(1H-1,2,4-triazol-3-yl)phenyl)-1-(trans-4-methoxycyclohexyl)-3,4-dihydropyrazino[2,3-b]pyrazin-2(1H)-one]	0.005 to 250 nM
Cc1cc(-c2nc[nH]n2)c(F)cc1-c1cnc2c(n1)N([C@H]1CC[C@H](O)CC1)C(=O)CN2 [Example 174, 7-(5-fluoro-2-methyl-4-(1H-1,2,4-triazol-3-yl)phenyl)-1-(trans-4-hydroxycyclohexyl)-3,4-dihydropyrazino[2,3-b]pyrazin-2(1H)-one]	0.005 to 250 nM
COCCN1C(=O)CNc2ncc(-c3cc(F)c(-c4nc[nH]n4)cc3C)nc21 [Example 175, 7-(5-fluoro-2-methyl-4-(1H-1,2,4-triazol-3-yl)phenyl)-1-(2-methoxyethyl)-3,4-dihydropyrazino[2,3-b]pyrazin-2(1H)-one]	0.005 to 250 nM
Cc1cc(-c2nc[nH]n2)c(F)cc1-c1cnc2c(n1)N(C(C)C)C(=O)CN2 [Example 176, 7-(5-fluoro-2-methyl-4-(1H-1,2,4-triazol-3-yl)phenyl)-1-isopropyl-3,4-dihydropyrazino[2,3-b]pyrazin-2(1H)-one]	0.005 to 250 nM
CCN1C(=O)CNc2ncc(-c3cc(F)c(-c4nc[nH]n4)cc3C)nc21 [Example 177, 1-ethyl-7-(5-fluoro-2-methyl-4-(1H-1,2,4-triazol-3-yl)phenyl)-3,4-dihydropyrazino[2,3-b]pyrazin-2(1H)-one]	0.005 to 250 nM

SMILES	IC50
O=C1CNc2ncc(-c3ccnc(O)c3)nc2N1CCC1CCOCC1 [Example 178, 7-(2-hydroxypyridin-4-yl)-1-(2-(tetrahydro-2H-pyran-4-yl)ethyl)-3,4-dihydropyrazino[2,3-b]pyrazin-2(1H)-one]	500 to 1000 nM
Cc1cc(-c2nc[nH]n2)ncc1-c1cnc2c(n1)N(C(C)C)C(=O)CN2 [Example 179, 1-isopropyl-7-(4-methyl-6-(1H-1,2,4-triazol-3-yl)pyridin-3-yl)-3,4-dihydropyrazino[2,3-b]pyrazin-2(1H)-one]	0.005 to 250 nM
Cc1cc(C(N)=O)ncc1-c1cnc2c(n1)N(C(C)C)C(=O)CN2 [Example 180, 5-(8-isopropyl-7-oxo-5,6,7,8-tetrahydropyrazino[2,3-b]pyrazin-2-yl)-4-methylpicolinamide]	0.005 to 250 nM
O=C1CNc2ncc(-c3cccc4[nH]ncc34)nc2N1CCC1CCOCC1 [Example 181, 7-(1H-indazol-4-yl)-1-(2-(tetrahydro-2H-pyran-4-yl)ethyl)-3,4-dihydropyrazino[2,3-b]pyrazin-2(1H)-one]	0.005 to 250 nM
Nc1ncc(-c2cnc3c(n2)N(CCC2CCOCC2)C(=O)CN3)cn1 [Example 182, 7-(2-aminopyrimidin-5-yl)-1-(2-(tetrahydro-2H-pyran-4-yl)ethyl)-3,4-dihydropyrazino[2,3-b]pyrazin-2(1H)-one]	250 to 500 nM
Nc1cc(-c2cnc3c(n2)N(CCC2CCOCC2)C(=O)CN3)ccn1 [Example 183, 7-(2-aminopyridin-4-yl)-1-(2-(tetrahydro-2H-pyran-4-yl)ethyl)-3,4-dihydropyrazino[2,3-b]pyrazin-2(1H)-one]	500 to 1000 nM
CNc1ccc(-c2cnc3c(n2)N(CCC2CCOCC2)C(=O)CN3)cn1 [Example 184, 7-(6-(methylamino)pyridin-3-yl)-1-(2-(tetrahydro-2H-pyran-4-yl)ethyl)-3,4-dihydropyrazino[2,3-b]pyrazin-2(1H)-one]	0.005 to 250 nM
O=C1CNc2ncc(-c3ccc(O)nc3)nc2N1CCC1CCOCC1 [Example 185, 7-(6-hydroxypyridin-3-yl)-1-(2-(tetrahydro-2H-pyran-4-yl)ethyl)-3,4-dihydropyrazino[2,3-b]pyrazin-2(1H)-one]	1000 to 10000 nM
COCCN1C(=O)CNc2ncc(-c3ccc(-c4cc[nH]n4)cc3)nc21 [Example 186, 7-(4-(1H-pyrazol-3-yl)phenyl)-1-(2-methoxyethyl)-3,4-dihydropyrazino[2,3-b]pyrazin-2(1H)-one]	0.005 to 250 nM
O=C1CNc2ncc(-c3cccnc3)nc2N1CCC1CCOCC1 [Example 187, 7-(pyridin-3-yl)-1-(2-(tetrahydro-2H-pyran-4-yl)ethyl)-3,4-dihydropyrazino[2,3-b]pyrazin-2(1H)-one]	500 to 1000 nM
COCCN1C(=O)CNc2ncc(-c3cccc4[nH]ncc34)nc21 [Example 188, 7-(1H-indazol-4-yl)-1-(2-methoxyethyl)-3,4-dihydropyrazino[2,3-b]pyrazin-2(1H)-one]	1000 to 10000 nM
COCCN1C(=O)CNc2ncc(-c3ccc4cn[nH]c4c3)nc21 [Example 189, 7-(1H-indazol-6-yl)-1-(2-methoxyethyl)-3,4-dihydropyrazino[2,3-b]pyrazin-2(1H)-one]	1000 to 10000 nM
O=C1CNc2ncc(-c3cncnc3)nc2N1CCC1CCOCC1 [Example 190, 7-(pyrimidin-5-yl)-1-(2-(tetrahydro-2H-pyran-4-yl)ethyl)-3,4-dihydropyrazino[2,3-b]pyrazin-2(1H)-one]	1000 to 10000 nM
COc1ccc(-c2cnc3c(n2)N(CCC2CCOCC2)C(=O)CN3)cn1 [Example 191, 7-(6-methoxypyridin-3-yl)-1-(2-(tetrahydro-2H-pyran-4-yl)ethyl)-3,4-dihydropyrazino[2,3-b]pyrazin-2(1H)-one]	500 to 1000 nM
COCCN1C(=O)CNc2ncc(-c3cnc4[nH]ccc4c3)nc21 [Example 192, 1-(2-methoxyethyl)-7-(1H-pyrrolo[2,3-b]pyridin-5-yl)-3,4-dihydropyrazino[2,3-b]pyrazin-2(1H)-one]	0.005 to 250 nM
CCN1C(=O)CNc2ncc(-c3cnc4[nH]ccc4c3)nc21 [Example 193, 1-ethyl-7-(1H-pyrrolo[2,3-b]pyridin-5-yl)-3,4-dihydropyrazino[2,3-b]pyrazin-2(1H)-one]	250 to 500 nM
CCN1C(=O)CNc2ncc(-c3cccc4[nH]ncc34)nc21 [Example 194, 1-ethyl-7-(1H-indazol-4-yl)-3,4-dihydropyrazino[2,3-b]pyrazin-2(1H)-one]	1000 to 10000 nM
